The values that follow come from US20240207422A1, “NERVE TARGETING PEPTIDE CONJUGATES AND METHODS OF USE” (Alume Biosciences, Inc., priority 2022, published 2024).

The subject of one assay is excised human nerve tissue. The assay is described as follows: Phage display selection on excised human nerve tissue (Nerve2, Nerve3), NextGen sequence counts. The note with it: unique sequence count (relative enrichment); Nerve2 only. It counts as binding. The procedure:
Several m13 phage libraries were constructed expressing randomized variants of a parent peptide (QVPWEEPYYVVKKS-SGGL; SEQ ID NO: 576). In particular, the first 14 amino acids of the parent peptide were randomized using degenerate oligonucleotide synthesis to obtain a diverse set of peptides with a mutation rate of about 50% per residue.
To accomplish this, synthesis was carried out by the XXK codon design approach, where X is any base and K is G or T. To bias synthesis towards the parent sequence, synthesis was carried out at each X position with a mixture of about 70%-85% of the parent nucleotide and 15-30% of the remaining 3 nucleotides. The resulting molecules were inserted into fADL-1e (Antibody Design Laboratories), which is a type 3 phage display vector having a cloning site on the N-terminal side of the full-length gene III protein. The fusion proteins are directed to the periplasm by the PelB leader peptide, which is inserted in the vector […].
Collectively, the phage display libraries used in the screens comprised about 600 million peptides, with sequencing analysis confirming a mutation rate of about 50% per residue.
Phage libraries were independently processed, as follows, with five biological samples: two independent samples of excised human nerve tissue, one sample of a human nerve extract, and two independent samples of human muscle tissue, as follows:
Excised Human Nerve Tissue: For each of the two independent samples, phage were processed through multiple cycles of selection, with representative phage being isolated and sequenced after each selection cycle. Specifically, for selection using human nerve tissue, a sample of […] tissue (2 mm by 2 mm) was washed prior to mixing and incubation with a phage library. After incubation, the mixture (containing mostly intact nerves with phage particles that had variable affinity for nerves) was centrifuged and the nerve pellet washed multiple times with PBS to remove phage with little or no affinity for nerve tissue. The pellet was homogenized and plated for titering and reamplification. Phage that were bound at each round were sequenced. NextGen sequencing of pools after 2, 3 and 4 rounds of selection were used to isolate candidate sequences that were further analyzed using bioinformatics.
NextGen sequencing of pools after 2, 3 and 4 rounds of selection were used to isolate candidate sequences from each of the five samples. These five data sets were then analyzed as described in the next section.
Peptide and vector sequences were translated starting at the first start codon in the nucleotide sequence. […] Trimmed peptides with identical sequences were combined and quantified according to their frequency (count).
Following processing, an R script was written to merge the unique peptide sequences (with counts 6 or greater) from the 5 different data sets to analyze the overlap between nerve and muscle binding activity.
For the single Nerve2, Nerve3, and Plated Nerve2 (pn2) subsets, the number of counts for each group was set at a threshold giving rise to at least 100 peptides. […] As highlighted in yellow in FIG. 1B, the representative group also included 6 unique peptides overlapping between nerve2 and nerve3, 200 unique peptides overlapping between nerve2 and plated nerve2 (at least 60 counts), 4 unique peptides overlapping between nerve3 and plated nerve2. Finally, as highlighted in green in FIG. 1B, the representative group also included […] common to the nerve2, nerve3, and plated nerve2 sets.
241 (HDASGVSYYDRRES) [compound 241] showed a Count of 21.
242 (HVGLPEPHHVMIHS) [compound 242] returned a Count of 20.
As to 243 (EVPSLQPYHGGKKS) [compound 243], the Count was determined as 19.
Same read-out and setting: under 244 (QIPSQEPYHRFKES) [compound 244] stands 19.
Substance 245 (QIPGEAPYSFGKKY) [compound 245] showed a Count of 18.
The same measure, in the same setting: under 246 (QNPWHYPYSLVSTA) [compound 246] stands 17; under 247 (DVPFRLWNFAVVDS) [compound 247], 15; under 248 (HFAWVVPNDAVKAS) [compound 248], 15.
In the case of 249 (HFSWEERYRVVHKS) [compound 249], the Count turned out to be 15.
Still for that read-out and setting: under 250 (RVPSDEPYSFLRQS) [compound 250] stands 15; under 251 (TQRWAEPYHVFHKS) [compound 251], 15.
252 (HVLRHEPYYVVAQA) [compound 252] yielded a Count of 14.
With 253 (LLPSDEAHYIVKHS) [compound 253], the Count stood at 14.
On the same count and under the same terms, under 254 (NVLSEQPGYVMEYL) [compound 254] stands 14; under 255 (QLPWTNPFHVVNKY) [compound 255], 14.
As for 256 (QYSLDESPYGAKKS) [compound 256], the Count came to 14.
Still for that read-out and setting: then 257 (YVPGAAPIGIVHKS) [compound 257], with 14; and 258 (HFAWEEVFHVKKNF) [compound 258], with 13; and 259 (HSPSKESHYVLENM) [compound 259], with 13.
Still for that read-out and setting: then 260 (HVPFGGTYSVEGES) [compound 260], with 13; and 261 (HYRCVGSCYVVAKS) [compound 261], with 13; and 262 (LFRSQAQNVLVISH) [compound 262], with 13.
Consider 263 (QFPGSELTVSVIQV) [compound 263], for which the Count came out at 13.
Substance 264 (QFSSQEAHYELNTP) [compound 264] registered a Count of 13.
On the same count and under the same terms, then 265 (QSPWDEPYYGVLMA) [compound 265], with 13.
On the same count and under the same terms, under 266 (QSTPEERYHRVIQA) [compound 266] stands 13.
On the same count and under the same terms, under 267 (QVPLGAPFYAVRKS) [compound 267] stands 13; under 268 (YERWEAPFYDVQKS) [compound 268], 13.

The assay is the same for the next values; noted with them: unique sequence count (relative enrichment); peptides overlapping between Nerve2 and Plated Nerve2.
The substance 180 (QHTHKQPFNVVKNY) [compound 180] had a Count of 75.
181 (VVPSQGTYHVGMTS) [compound 181] came in with a Count of 75.
Consider 182 (AVAWERPYYVVNHS) [compound 182], for which the Count came out at 74.
Turning to 183 (DVLLARTYYFGEFP) [compound 183], the Count came to 74.
Substance 184 (HFAGQEHLHFVEIS) [compound 184] showed a Count of 74.
Same read-out and setting: then 185 (LFAWAEANNVMKNS) [compound 185], with 74; and 186 (SITNKQSVYVLKKS) [compound 186], with 73.
187 (HVQSANPYYDVRNS) [compound 187] gave a Count of 72.
Same read-out and setting: under 188 (HVSFDEPYYYVKKS) [compound 188] stands 72; under 189 (QDYWAKPSYIVKHS) [compound 189], 72.
Still for that read-out and setting: under 190 (QISLTEATLVVRKS) [compound 190] stands 72; under 191 (DVLWEEPRYFVNNS) [compound 191], 71.
192 (HAHGQETYFLVKQS) [compound 192] came in with a Count of 71.
The same measure, in the same setting: under 193 (HFALQDPYQVFKKT) [compound 193] stands 71.
Same read-out and setting: then 194 (QYPAERPTFDVTNA) [compound 194], with 71.
Still for that read-out and setting: under 195 (SLPMEERYYAVRTA) [compound 195] stands 71; under 196 (DVEWEEPYYFLEKS) [compound 196], 70; under 197 (DVTWEEPYYAVKNS) [compound 197], 69.
As for 198 (EHPRVESVYLFPHT) [compound 198], the Count is on record as 69.
199 (HDSLDLHYYAMHES) [compound 199] registered a Count of 69.
The same measure, in the same setting: then 200 (QCPLEESCFDGQKS) [compound 200], with 69; and 201 (QLTWPKQNYTMTQS) [compound 201], with 69.
Same read-out and setting: then 202 (QLPWGAPYYVVKNS) [compound 202], with 68; and 203 (RLPSEEPYTVAKRP) [compound 203], with 68.
The same measure, in the same setting: then 204 (DFPWEQRSSTVKQY) [compound 204], with 67; and 205 (DHTRVHPYYDFEIP) [compound 205], with 67; and 206 (HATLQEPYFVVNHY) [compound 206], with 67.
With 207 (HDTWKGPYYPANKS) [compound 207], the Count was determined as 67.
The same measure, in the same setting: under 208 (QLPSQEPYNVQRKS) [compound 208] stands 67; under 209 (SVTRYDLSTDVTKS) [compound 209], 67.
Still for that read-out and setting: then 210 (ESQWEQPSDVFKVV) [compound 210], with 66.
For 211 (KLPLEEPFYIVTPS) [compound 211], the Count turned out to be 66.
In the case of 212 (QIRWEDASYVEKTS) [compound 212], the Count is 66.
Still for that read-out and setting: then 213 (QVPWKGQYYVVASS) [compound 213], with 66.
As for 214 (HGPTDGPYYVSKKS) [compound 214], the Count was 65.
With 215 (HILRQEPYYVLTNY) [compound 215], the Count is 65.
The substance 216 (HSHGQELFYVVTNT) [compound 216] yielded a Count of 65.
The substance 217 (HVPWGEPEALVKKS) [compound 217] gave a Count of 65.
The substance 218 (QPPREQPYHIMKNS) [compound 218] gave a Count of 65.
On to 219 (QTSWAGPHDRVTKA) [compound 219], for which the Count is on record as 65.
220 (QVPCEEPWCLVKVN) [compound 220] registered a Count of 65.
As to 221 (QVPWQDPVYDVNNA) [compound 221], the Count is reported as 65.
Same read-out and setting: under 222 (YVKTVNPDSVLKIS) [compound 222] stands 65; under 223 (HVHFTDPHYVMKKS) [compound 223], 64.
In turn, 224 (HVPLQGPYYVKQKP) [compound 224] gave a Count of 64.
Still for that read-out and setting: then 225 (NVEWEIPYYFVKKF) [compound 225], with 64.
On the same count and under the same terms, then 226 (QFAWVQPYYFAKKS) [compound 226], with 64; and 227 (QHPVKERDEFWKES) [compound 227], with 64.
Still for that read-out and setting: under 228 (QIPWGETTAGIKKL) [compound 228] stands 64.
The substance 229 (EFSREQPNDFLNKS) [compound 229] displayed a Count of 63.
230 (HIPFAEHDGVVPIS) [compound 230] came in with a Count of 63.
Still for that read-out and setting: then 231 (HVTSHEARYLAQNS) [compound 231], with 63; and 232 (EFTWEGLSEGVNEP) [compound 232], with 62.
On the same count and under the same terms, then 233 (HVSSEYPYYVVKHT) [compound 233], with 62; and 234 (HVPAEPLVYENQKS) [compound 234], with 61; and 235 (LIVSQPSYLAVQYS) [compound 235], with 61.
236 (QLPLAKPNSVVATS) [compound 236] gave a Count of 61.
As to 237 (RLAWEEPHYVVKKS) [compound 237], the Count amounted to 61.
Substance 238 (KFTTQDSYYFGTQT) [compound 238] came in with a Count of 60.
Take 239 (NVTSREPYHLLEKS) [compound 239]: the Count was 60.
Same read-out and setting: then 240 (QLPFIGPYHVAKKS) [compound 240], with 60.
